Measured values: patent publication US8906852B2 (MethylGene Inc., priority 2010, dated 2014)
pIC50: −log10 of the molar value.

What follows are compounds tested against T1, VEGFR/KDR (Homo sapiens, UniProt P35968) (assay: VEGFR/KDR kinase inhibition, DELFIA assay). Settings: ATP 0.6 uM (2x Km), enzyme 5 nM.
T1 construct: made in house; host or cells: Sf9 cells (Spodoptera frugiperda), baculovirus
Format: biochemical
Procedure, shortened: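 Enzyme (5 nM) pre-incubated 4 min on ice with inhibitor and Mg-ATP (0.6 uM, 2× Km), then reacted 10-30 min at 30° C on immobilized poly(Glu4,Tyr). EDTA-quenched phosphotyrosine detected with Europium-labeled antibody by time-resolved fluorescence; IC50 from concentration series.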

T1 sequence (P35968 806-1356): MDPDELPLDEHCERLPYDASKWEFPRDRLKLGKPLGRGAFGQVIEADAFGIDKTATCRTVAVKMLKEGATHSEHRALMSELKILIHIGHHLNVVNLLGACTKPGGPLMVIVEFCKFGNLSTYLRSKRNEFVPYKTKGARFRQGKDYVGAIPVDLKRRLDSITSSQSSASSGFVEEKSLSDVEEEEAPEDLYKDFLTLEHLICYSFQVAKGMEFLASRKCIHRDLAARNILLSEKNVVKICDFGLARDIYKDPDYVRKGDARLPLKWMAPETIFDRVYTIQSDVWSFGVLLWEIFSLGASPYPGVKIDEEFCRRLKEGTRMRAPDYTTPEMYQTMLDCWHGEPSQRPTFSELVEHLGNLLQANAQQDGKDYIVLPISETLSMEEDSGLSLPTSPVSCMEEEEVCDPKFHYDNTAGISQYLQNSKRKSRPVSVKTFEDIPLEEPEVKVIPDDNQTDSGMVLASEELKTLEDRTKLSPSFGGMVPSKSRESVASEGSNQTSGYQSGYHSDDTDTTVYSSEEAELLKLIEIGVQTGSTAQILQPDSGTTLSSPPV

Row | SMILES | pIC50
1 | CCOC(=O)C1CCCN(C(=O)c2ccc(-c3cc4nccc(Oc5ccc(NC(=O)NC6CC6)cc5F)c4s3)nc2)C1 (stereo not drawn) [Compound 237, ethyl 1-(6-(7-(4-(3-cyclopropylureido)-2-fluorophenoxy)thieno-[3,2-b]pyridin-2-yl)nicotinoyl)piperidine-3-carboxylate] | > 7.30
2 | CCCCOC(=O)C1CN(C(=O)c2ccc(-c3cc4nccc(Oc5ccc(NC(=O)NC6CC6)cc5F)c4s3)nc2)CCO1 (stereo not drawn) [Compound 238, butyl 4-(6-(7-(4-(3-cyclopropylureido)-2-fluorophenoxy)thieno[3,2-b]pyridin-2-yl)nicotinoyl)morpholine-2-carboxylate] | > 7.30
3 | O=C(O)CCN1CCN(C(=O)c2ccc(-c3cc4nccc(Oc5ccc(NC(=O)NC6CC6)cc5F)c4s3)nc2)CC1 [Compound 239, 3-(4-(6-(7-(4-(3-cyclopropylureido)-2-fluorophenoxy)thieno[3,2-b]pyridin-2-yl)nicotinoyl)piperazin-1-yl)propanoic acid tetraacetate] | > 7.30
4 | O=C(Nc1ccc(Oc2ccnc3cc(-c4ccc(C(=O)N5CCCC(C(=O)O)C5)cn4)sc23)c(F)c1)NC1CC1 (stereo not drawn) [Compound 240, 1-(6-(7-(4-(3-cyclopropylureido)-2-fluorophenoxy)thieno[3,2-b]-pyridin-2-yl)nicotinoyl)piperidine-3-carboxylic acid] | > 7.30
5 | O=C(Nc1ccc(Oc2ccnc3cc(-c4ccc(C(=O)N5CCOC(C(=O)O)C5)cn4)sc23)c(F)c1)NC1CC1 (stereo not drawn) [Compound 241, 4-(6-(7-(4-(3-cyclopropylureido)-2-fluorophenoxy)thieno[3,2-b]-pyridin-2-yl)nicotinoyl)morpholine-2-carboxylic acid] | > 7.30
6 | COCCNCCn1cc(-c2cc3nccc(Oc4ccc(NC(=O)NC5CC5)cc4F)c3s2)cn1 [Compound 247, 1-cyclopropyl-3-(3-fluoro-4-(2-(1-(2-(2-methoxyethylamino)ethyl)-1H-pyrazol-4-yl)thieno[3,2-b]pyridin-7-yloxy)phenyl)urea] | > 7.30
7 | COCCN(CCn1cc(-c2cc3nccc(Oc4ccc(NC(=O)NC5CC5)cc4F)c3s2)cn1)C(C)=O [Compound 254, N-(2-(4-(7-(4-(3-cyclopropylureido)-2-fluorophenoxy)thieno[3,2-b]pyridine-2-yl)-1H-pyrazol-1-yl)ethyl)-N-(2-methoxyethyl)acetamide] | > 7.30
8 | COCCN(CCn1cnc(-c2cc3nccc(Oc4ccc(NC(=O)NC5CC5)cc4F)c3s2)c1)C(C)=O [Compound 254-A, N-(2-(4-(7-(4-(3-cyclopropylureido)-2-fluorophenoxy)-thieno[3,2-b]pyridin-2-yl)-1H-imidazol-1-yl)ethyl)-N-(2-methoxyethyl)acetamide] | > 7.30
9 | CCNC(=O)N(CCOC)CCn1cc(-c2cc3nccc(Oc4ccc(NC(=O)NC5CC5)cc4F)c3s2)cn1 [Compound 255, N-(2-(4-(7-(4-(3-cyclopropylureido)-2-fluorophenoxy)thieno[3,2-b]-pyridine-2-yl)-1H-pyrazol-1-yl)ethyl)-N-(1-ethyl)-N-[3-(2-methoxyethyl)]urea] | 7.00 to 7.30
10 | CCNC(=O)N(CCOC)CCn1cnc(-c2cc3nccc(Oc4ccc(NC(=O)NC5CC5)cc4F)c3s2)c1 [Compound 256, N-(2-(4-(7-(4-(3-cyclopropylureido)-2-fluorophenoxy)thieno[3,2-b]-pyridin-2-yl)-1H-imidazol-1-yl)ethyl)-N-(1-ethyl)-N-[3-(2-methoxyethyl)]urea] | > 7.30
11 | COCCN(CCn1cc(-c2cc3nccc(Oc4ccc(NC(=O)NC5CC5)cc4F)c3s2)cn1)C(=O)CO [Compound 257, N-(2-(4-(7-(4-(3-cyclopropylureido)-2-fluorophenoxy)thieno[3,2-b]-pyridin-2-yl)-1H-pyrazol-1-yl)ethyl)-2-hydroxy-N-(2-methoxyethyl)acetamide] | > 7.30
12 | COCCN(CCn1cnc(-c2cc3nccc(Oc4ccc(NC(=O)NC5CC5)cc4F)c3s2)c1)C(=O)CO [Compound 258, N-(2-(4-(7-(4-(3-cyclopropylureido)-2-fluorophenoxy)thieno[3,2-b]-pyridin-2-yl)-1H-imidazol-1-yl)ethyl)-2-hydroxy-N-(2-methoxyethyl)acetamide] | > 7.30
13 | COCCOCCOCCOCCN(Cc1ccc(-c2cc3nccc(Oc4ccc(NC(=O)NC5CC5)c(F)c4F)c3s2)nc1)C(=O)CO [Compound 259, N-((6-(7-(4-(3-cyclopropylureido)-2,3-difluorophenoxy)thieno-[3,2-b]pyridin-2-yl)pyridin-3-yl)methyl)-2-hydroxy-N-(2,5,8,11-tetraoxatridecan-13-yl)acetamide] | > 7.30
14 | COCCN(Cc1ccc(-c2cc3nccc(Oc4ccc(NC(=O)NC5CC5)c(F)c4F)c3s2)nc1)C(=O)CO [Compound 259-A, N-((6-(7-(4-(3-cyclopropylureido)-2,3-difluorophenoxy)thieno[3,2-d]pyridin-2-yl)pyridin-3-yl)methyl)-2-hydroxy-N-(2-methoxyethyl)acetamide] | > 7.30
15 | CN1CCN(CCn2cnc(-c3cc4nccc(Oc5ccc(NC(=O)NC6CC6)cc5F)c4s3)c2)CC1 [Compound 266, 1-Cyclopropyl-3-(3-fluoro-4-(2-(1-(2-(4-methylpiperazin-1-yl)ethyl)-1H-imidazol-4-yl)thieno[3,2-b]pyridin-7-yloxy)phenyl)urea] | > 7.30
16 | O=C(Nc1ccc(Oc2ccnc3cc(-c4cn(CCN5CCCC5=O)cn4)sc23)c(F)c1)NC1CC1 [Compound 267, 1-cyclopropyl-3-(3-fluoro-4-(2-(1-(2-(2-oxopyrrolidin-1-yl)ethyl)-1H-imidazol-4-yl)thieno[3,2-b]pyridin-7-yloxy)phenyl)urea] | > 7.30
17 | O=C(Nc1ccc(Oc2ccnc3cc(C4=CCNCC4)sc23)c(F)c1)NC1CC1 [Compound 271-A, 1-Cyclopropyl-3-(3-fluoro-4-(2-(1,2,3,6-tetrahydropyridin-4-yl)thieno[3,2-b]pyridin-7-yloxy)phenyl)urea] | 7.00 to 7.30
18 | O=C(O)CCC(=O)N1CC=C(c2cc3nccc(Oc4ccc(NC(=O)NC5CC5)cc4F)c3s2)CC1 [Compound 273, 4-(4-(7-(4-(3-cyclopropylureido)-2-fluorophenoxy)thieno[3,2-b]pyridin-2-yl)-5,6-dihydropyridin-1(2H)-yl)-4-oxobutanoic acid] | ≤ 6.60
19 | COCCOCC(=O)N1CC=C(c2cc3nccc(Oc4ccc(NC(=O)NC5CC5)cc4F)c3s2)CC1 [Compound 274] | > 7.30
20 | CS(=O)(=O)N1CC=C(c2cc3nccc(Oc4ccc(NC(=O)NC5CC5)cc4F)c3s2)CC1 [Compound 275, 1-cyclopropyl-3-(3-fluoro-4-(2-(1-(methylsulfonyl)-1,2,3,6-tetrahydropyridin-4-yl)thieno[3,2-b]pyridin-7-yloxy)phenyl)urea] | > 7.30
21 | O=C(Nc1ccc(Oc2ccnc3cc(C4=CCN(CCCN5CCOCC5)CC4)sc23)c(F)c1)NC1CC1 [Compound 276, 1-cyclopropyl-3-(3-fluoro-4-(2-(1-(3-morpholinopropyl)-1,2,3,6-tetrahydropyridin-4-yl)thieno[3,2-b]pyridin-7-yloxy)phenyl)urea] | 7.00 to 7.30
22 | O=C(Nc1ccc(Oc2ccnc3cc(C4=CCN(CCCCO)CC4)sc23)c(F)c1)NC1CC1 [Compound 277, 1-cyclopropyl-3-(3-fluoro-4-(2-(1-(4-hydroxybutyl)-1,2,3,6-tetrahydropyridin-4-yl)thieno[3,2-b]pyridin-7-yloxy)phenyl)urea] | 6.60 to 7.00
23 | O=C(Nc1ccc(Oc2ccnc3cc(-c4ccc(CN5CCCC5=O)nc4)sc23)c(F)c1)NC1CC1 [Compound 283, 1-cyclopropyl-3-(3-fluoro-4-(2-(6-((2-oxopyrrolidin-1-yl)methyl)pyridin-3-yl)thieno[3,2-b]pyridin-7-yloxy)phenyl)urea] | > 7.30
24 | O=C(Nc1ccc(Oc2ccnc3cc(-c4ccc(CCN5CCCC5=O)cn4)sc23)c(F)c1)NC1CC1 [Compound 295, 1-cyclopropyl-3-(3-fluoro-4-(2-(5-(2-(2-oxopyrrolidin-1-yl)ethyl)pyridin-2-yl)thieno[3,2-b]pyridin-7-yloxy)phenyl)urea] | > 7.30
25 | Cn1c(CN2CCOCC2)cnc1-c1cc2nccc(Oc3ccc(NC(=O)NC4CC4)cc3F)c2s1 [Compound 298] | > 7.30
26 | CC(C)NC(=O)Nc1ccc(Oc2ccnc3cc(-c4ncc(CN5CCOCC5)n4C)sc23)c(F)c1 [Compound 299, 1-(3-fluoro-4-(2-(1-methyl-5-(morpholinomethyl)-1H-imidazol-2-yl)thieno[3,2-b]pyridin-7-yloxy)phenyl)-3-isopropylurea] | > 7.30
27 | CC(=O)OCC(=O)N1CCN(Cc2ccc(-c3cc4nccc(Oc5ccc(NC(=O)NC6CC6)cc5F)c4s3)nc2)CC1 [Compound 310, 2-(4-((6-(7-(4-(3-cyclopropylureido)-2-fluorophenoxy)thieno[3,2-b]pyridin-2-yl)pyridin-3-yl)methyl)piperazin-1-yl)-2-oxoethyl acetate] | > 7.30
28 | O=C(Nc1ccc(Oc2ccnc3cc(-c4ccc(CN5CC6CNCC6C5)cn4)sc23)c(F)c1)NC1CC1 (stereo not drawn) [Compound 311, 1-cyclopropyl-3-(3-fluoro-4-(2-(5-((hexahydropyrrolo[3,4-c]pyrrol-2(1H)-yl)methyl)pyridin-2-yl)thieno[3,2-b]pyridin-7-yloxy)phenyl)urea] | > 7.30
29 | O=C(Nc1ccc(Oc2ccnc3cc(-c4ccc(CN5CCC(F)(F)C5)cn4)sc23)c(F)c1)NC1CC1 [Compound 315, 1-cyclopropyl-3-(4-(2-(5-((3,3-difluoropyrrolidin-1-yl)methyl)pyridin-2-yl)thieno[3,2-b]pyridin-7-yloxy)-3-fluorophenyl)urea] | > 7.30
30 | O=C(Nc1ccc(Oc2ccnc3cc(-c4ccc(CN5CC[C@H](F)C5)cn4)sc23)c(F)c1)NC1CC1 [Compound 323, (S)-1-cyclopropyl-3-(3-fluoro-4-(2-(5-((3-fluoropyrrolidin-1-yl)methyl)pyridin-2-yl)thieno[3,2-b]pyridin-7-yloxy)phenyl)urea] | > 7.30
